Reference: US20220401377A1, “COMPOSITION FOR PREVENTING AND/OR TREATING NEURODEGENERATIVE DISORDERS” (ICHIMARU PHARCOS CO., LTD., priority 2019, published 2022)

Experiments:
[1] = test system: human breast cancer cell line (MCF-7); details: MCF-7, Non-patent literature 1; cited from earlier work
[2] = test system: mouse model of memory impairment; assay: Y-shaped maze test in scopolamine mouse model of memory impairment; format: in vivo; details: ICR mice, scopolamine 3 mg/kg i.p., Y-shaped maze on day 7
Protocol: The memory-improving effect of araliadiol was confirmed by administering (orally by sonde) a composition containing arariadiol (a compound shown in Formula I) to a mouse model of memory impairment.
Experimental methods are described below. The following groups of ICR mice (male, 7 weeks old/purchased from SLC Japan) were established. The mice in each group, except for the untreated group, were treated with the composition orally administered by sonde and scopolamine administered intraperitoneally (i.p.). The composition contains a predetermined amount of araliadiol in distilled water. Scopolamine was administered at a dose of 3 mg per kg of mice to cause memory impairment in mice. […] For groups other than the untreated group, distilled water or the composition was administered daily from day 0 to day 6 (seven doses of the composition), with day 0 being the first day of administration of distilled water or the composition. On the 7th day, all groups of mice were tested in a Y-shaped maze test. Scopolamine was administered to all groups of mice except the untreated group 30 minutes before the start of the Y-shaped maze test. • Untreated group: 15 ICR mice that were treated with distilled water containing no araliadiol, but not with scopolamine. • Control group: 16 ICR mice were treated with distilled water containing no araliadiol and scopolamine. • Araliadiol 1 mg/kg group: 16 ICR mice were treated with a composition containing araliadiol (1 mg of araliadiol per 1 kg of mouse body weight per day: 1 mg/kg/day) and scopolamine. • Araliadiol […]: A group of 16 ICR mice that received a composition containing araliadiol (10 mg of araliadiol per kg of mouse body weight per day: 10 mg/kg/day) and a dose of SCOPE.
The Y-shaped maze device shown in FIG. 11 (made of gray acrylic: 40 cm long×10 cm wide×12 cm high) was used to conduct the Y-shaped maze test. In the Y-shaped maze test, mice were allowed to explore in the device, and the spontaneous alternations observed during the exploratory behavior were evaluated as short-term memory. The mice were placed at the tip of one of the three arms of the Y-shaped maze, allowed to explore freely in the maze for 8 minutes, and the arms they entered were recorded in order. The number of times for the mouse to enter each arm (total number of arm entries) and the number of combinations of consecutive entries into three different arms (number of alternation behaviors) were examined during the measurement period (8 minutes). The alternation behavior (%) was calculated from the following formula and used as an index of short-term memory.
Alternating behavior (%)=number of alternating actions/(total number of arm entries−2)×100

## C=C[C@H](O)C#CC#C[C@H](O)/C=C\CCCCC [Araliadiol, 3(S),8(R)-pentadeca-1,9(Z)-diene-4,6-diyne-3,8-diol]
[1]
  cell cycle: arrest the cell cycle
  proliferation: inhibit the proliferation
[2]; 1 mg/kg/day oral for 7 days
  Alternating behavior (%): 50.87%
[2]; 1 mg/kg/day oral for 7 days, listed as araliadiol
  Alternating behavior (%): increase in the rate of alternation behavior
[2]; 10 mg/kg/day oral for 7 days
  Alternating behavior (%): 53.18(*) %
[2]; 10 mg/kg/day oral for 7 days, listed as araliadiol
  Alternating behavior (%): improvement in the rate of alternating behavior
